# Toxic doses and inconclusive results are not listed.
# Tested on: CD2F1 mice, ip Colon 26 adenocarcinoma, median survival T/C
# Test: NCI In Vivo Anticancer Drug Screen. Data for tumor model Colon 26 Adenocarcinoma (intraperitoneal) in CD2F1 (CDF1) mice
# Conditions: endpoint: median survival time, higher = longer survival
# Description: The antitumor activity of compounds was measured in mice bearing transplantable tumors. Survival or tumor size were measured and the results are expressed as the measurement made in the treated group (T) divided by the measurement made in the vehicle treated control group (C). The tumor model used in this assay is Colon 26 Adenocarcinoma (intraperitoneal) in CD2F1 (CDF1) mice
# [1] = dose: 6.25 mg/kg/injection, schedule: Q04DX003 (ip), vehicle: saline with Tween-80
# [2] = dose: 12.5 mg/kg/injection, schedule: Q04DX003 (ip), vehicle: saline with Tween-80
# [3] = dose: 12.5 mg/kg/injection, schedule: Q04DX003 (ip), vehicle: saline
smiles,measurement,setting,value
O=C(O)c1ccc(C(=O)O)c(C(=O)O)c1.[NH-]C1CCCCC1[NH-].[Pt+2],T/C,"dose: 2.0 mg/kg/injection, schedule: Q01DX004 (ip), vehicle: sodium bicarbonate",106 % of control
same,T/C,"dose: 3.12 mg/kg/injection, schedule: Q04DX003 (ip), vehicle: sodium bicarbonate",114 % of control
same,T/C,"dose: 4.0 mg/kg/injection, schedule: Q01DX004 (ip), vehicle: sodium bicarbonate",101 % of control
same,T/C,"dose: 6.25 mg/kg/injection, schedule: Q04DX003 (ip), vehicle: sodium bicarbonate",111 % of control
same,T/C,"dose: 8.0 mg/kg/injection, schedule: Q01DX004 (ip), vehicle: sodium bicarbonate",105 % of control
same,T/C,"dose: 8.8 mg/kg/injection, schedule: Q01DX001 (ip), vehicle: saline",150 % of control
same,T/C,"dose: 8.8 mg/kg/injection, schedule: Q01DX001 (iv), vehicle: saline",96 % of control
same,T/C,"dose: 9.1 mg/kg/injection, schedule: Q04DX004 (iv), vehicle: sodium bicarbonate",105 % of control
same,T/C,"dose: 12.5 mg/kg/injection, schedule: Q04DX003 (ip), vehicle: sodium bicarbonate",167 % of control
same,T/C,"dose: 13.2 mg/kg/injection, schedule: Q01DX001 (iv), vehicle: saline",87 % of control
same,T/C,"dose: 13.5 mg/kg/injection, schedule: Q04DX004 (iv), vehicle: sodium bicarbonate",104 % of control
same,T/C,"dose: 19.8 mg/kg/injection, schedule: Q01DX001 (ip), vehicle: saline",92 % of control
same,T/C,"dose: 20.0 mg/kg/injection, schedule: Q04DX004 (iv), vehicle: sodium bicarbonate",114 % of control
same,T/C,"dose: 25.0 mg/kg/injection, schedule: Q04DX003 (ip), vehicle: sodium bicarbonate",167 % of control
same,T/C,"dose: 29.6 mg/kg/injection, schedule: Q01DX001 (ip), vehicle: saline",96 % of control
same,T/C,"dose: 35.0 mg/kg/injection, schedule: Q04DX002 (ip), vehicle: sodium bicarbonate",103 % of control
same,T/C,"dose: 44.4 mg/kg/injection, schedule: Q01DX001 (iv), vehicle: saline",121 % of control
same,T/C,"dose: 50.0 mg/kg/injection, schedule: Q04DX003 (ip), vehicle: sodium bicarbonate",159 % of control
same,T/C,"dose: 100.0 mg/kg/injection, schedule: Q04DX003 (ip), vehicle: sodium bicarbonate",101 % of control
CSc1cc(=O)n2c3ccccc3c3ccnc1c32,T/C,"dose: 2.5 mg/kg/injection, schedule: Q04DX003 (ip), vehicle: saline with Tween-80",100 % of control
same,T/C,"dose: 5.0 mg/kg/injection, schedule: Q04DX003 (ip), vehicle: saline with Tween-80",115 % of control
same,T/C,"dose: 20.0 mg/kg/injection, schedule: Q04DX003 (ip), vehicle: saline with Tween-80",151 % of control
CCC[CH2][Hg][Cl],T/C,"dose: 3.12 mg/kg/injection, schedule: Q04DX003 (ip), vehicle: Klucel (hydroxypropylcellulose) (HPC)",98 % of control
same,T/C,"dose: 6.25 mg/kg/injection, schedule: Q04DX003 (ip), vehicle: Klucel (hydroxypropylcellulose) (HPC)",93 % of control
CC1=CCCC(C)(O)C2CC(CCC3(C)OC3CC1)C(C)C(=O)O2 (stereo not drawn),T/C,"dose: 22.5 mg/kg/injection, schedule: Q04DX002 (ip), vehicle: Klucel (hydroxypropylcellulose) (HPC)",98 % of control
same,T/C,"dose: 45.0 mg/kg/injection, schedule: Q04DX002 (ip), vehicle: Klucel (hydroxypropylcellulose) (HPC)",100 % of control
same,T/C,"dose: 90.0 mg/kg/injection, schedule: Q04DX002 (ip), vehicle: Klucel (hydroxypropylcellulose) (HPC)",100 % of control
same,T/C,"dose: 180.0 mg/kg/injection, schedule: Q04DX002 (ip), vehicle: Klucel (hydroxypropylcellulose) (HPC)",102 % of control
CN(C)C=O,T/C,"dose: 100.0 mg/kg/injection, schedule: Q04DX002 (ip), vehicle: saline",93 % of control
same,T/C,"dose: 400.0 mg/kg/injection, schedule: Q04DX002 (ip), vehicle: saline",90 % of control
same,T/C,"dose: 800.0 mg/kg/injection, schedule: Q04DX002 (ip), vehicle: saline",168 % of control
same,T/C,"dose: 1600.0 mg/kg/injection, schedule: Q04DX002 (ip), vehicle: saline",93 % of control
O=C(O)c1c2c(nc3ccccc13)Cc1ccccc1-2,T/C,"dose: 12.5 mg/kg/injection, schedule: Q04DX002 (ip), vehicle: water",97 % of control
same,T/C,"dose: 25.0 mg/kg/injection, schedule: Q04DX002 (ip), vehicle: water",113 % of control
same,T/C,"dose: 100.0 mg/kg/injection, schedule: Q04DX002 (ip), vehicle: water",105 % of control
C=CC(=O)N1CN(C(=O)C=C)CN(C(=O)C=C)C1,T/C,"dose: 3.13 mg/kg/injection, schedule: Q04DX003 (ip), vehicle: saline with Tween-80",115 % of control
same,T/C,[1],110 % of control
same,T/C,[2],106 % of control
same,T/C,[3],122 % of control
C=C(NC(=O)C(=C)NC(=O)c1csc(C2=NC3c4csc(n4)C4NC(=O)c5csc(n5)C(C(C)(O)C(C)O)NC(=O)C5CSC(=N5)/C(=C/C)NC(=O)C(C(C)O)NC(=O)c5csc(n5)C3(CC2)NC(=O)C(C)NC(=O)C(=C)NC(=O)C(C)NC(=O)C(C(C)CC)NC2C=Cc3c(C(C)O)cc(nc3C2O)C(=O)OC4C)n1)C(N)=O (stereo not drawn),T/C,"dose: 5.0 mg/kg/injection, schedule: Q04DX003 (ip), vehicle: Klucel (hydroxypropylcellulose) (HPC)",120 % of control
same,T/C,"dose: 10.0 mg/kg/injection, schedule: Q04DX003 (ip), vehicle: Klucel (hydroxypropylcellulose) (HPC)",90 % of control
same,T/C,"dose: 20.0 mg/kg/injection, schedule: Q04DX003 (ip), vehicle: Klucel (hydroxypropylcellulose) (HPC)",100 % of control
same,T/C,"dose: 40.0 mg/kg/injection, schedule: Q04DX003 (ip), vehicle: Klucel (hydroxypropylcellulose) (HPC)",110 % of control
same,T/C,"dose: 80.0 mg/kg/injection, schedule: Q04DX003 (ip), vehicle: Klucel (hydroxypropylcellulose) (HPC)",102 % of control
same,T/C,"dose: 160.0 mg/kg/injection, schedule: Q04DX003 (ip), vehicle: Klucel (hydroxypropylcellulose) (HPC)",92 % of control
COC(OC(CO)C(O)S(=O)(=O)O)C(O)S(=O)(=O)O (stereo not drawn),T/C,[3],97 % of control
same,T/C,"dose: 25.0 mg/kg/injection, schedule: Q04DX003 (ip), vehicle: saline",102 % of control
same,T/C,"dose: 50.0 mg/kg/injection, schedule: Q04DX003 (ip), vehicle: saline",102 % of control
same,T/C,"dose: 100.0 mg/kg/injection, schedule: Q04DX003 (ip), vehicle: saline",108 % of control
same,T/C,"dose: 200.0 mg/kg/injection, schedule: Q04DX003 (ip), vehicle: saline",109 % of control
same,T/C,"dose: 400.0 mg/kg/injection, schedule: Q04DX003 (ip), vehicle: saline",100 % of control
NNC(=O)c1ccncc1,T/C,"dose: 72.0 mg/kg/injection, schedule: Q04DX002 (ip), vehicle: saline",103 % of control
same,T/C,"dose: 144.0 mg/kg/injection, schedule: Q04DX002 (ip), vehicle: saline",102 % of control
CCOC(=O)CNC(=O)CCCCSc1ncnc2nc[nH]c12,T/C,"dose: 400.0 mg/kg/injection, schedule: Q04DX003 (ip), vehicle: saline with Tween-80",104 % of control
same,T/C,"dose: 800.0 mg/kg/injection, schedule: Q04DX003 (ip), vehicle: saline with Tween-80",97 % of control
same,T/C,"dose: 1600.0 mg/kg/injection, schedule: Q04DX003 (ip), vehicle: saline with Tween-80",88 % of control
CC1CC(C)CC(C)C(O)/C(C#N)=C/C=C/CC(C2CCCC2C(=O)O)OC(=O)CC(O)C(C)C1 (stereo not drawn),T/C,"dose: 0.5 mg/kg/injection, schedule: Q04DX003 (ip), vehicle: saline",103 % of control
same,T/C,"dose: 1.0 mg/kg/injection, schedule: Q04DX003 (ip), vehicle: saline",105 % of control
same,T/C,"dose: 2.0 mg/kg/injection, schedule: Q04DX003 (ip), vehicle: saline",100 % of control
CCC[P+](c1ccccc1)(c1ccccc1)c1ccccc1,T/C,"dose: 3.12 mg/kg/injection, schedule: Q04DX003 (ip), vehicle: saline with Tween-80",112 % of control
same,T/C,[1],107 % of control
same,T/C,[2],104 % of control
same,T/C,"dose: 25.0 mg/kg/injection, schedule: Q04DX003 (ip), vehicle: saline with Tween-80",110 % of control
same,T/C,"dose: 50.0 mg/kg/injection, schedule: Q04DX003 (ip), vehicle: saline with Tween-80",110 % of control
CC(=O)OCC1(C)C(O)CCC2(C)C1CCC1CC3CC12CCC3(O)CO (stereo not drawn),T/C,"dose: 12.5 mg/kg/injection, schedule: Q04DX002 (ip), vehicle: distilled water + Tween-80",103 % of control
same,T/C,"dose: 25.0 mg/kg/injection, schedule: Q04DX002 (ip), vehicle: distilled water + Tween-80",111 % of control
same,T/C,"dose: 50.0 mg/kg/injection, schedule: Q04DX002 (ip), vehicle: distilled water + Tween-80",95 % of control
same,T/C,"dose: 100.0 mg/kg/injection, schedule: Q04DX002 (ip), vehicle: distilled water + Tween-80",104 % of control
